{
  "source": "patent US7049311B1",
  "about": "“Pyrrolbenzodiazepines” (Spirogen Limited, priority 1998, dated 2006)",
  "assay_in_all_cases": "Ovarian carcinoma cytotoxicity assay",
  "type_in_all_cases": "cell-based",
  "key": {"[1]": {"tested_on": "SKOV-3", "conditions": "Homo sapiens, SK-OV-3, 96 h, read-out: IC50 Skov3", "in_short": "(§1)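 Cells attached overnight, then read 96 hours later by sulphorhodamine B staining of TCA-fixed cells, with absorbance at 540 nm. IC50 taken from concentration versus % absorbance relative to untreated wells; cisR lines are cisplatin-resistant.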"}, "[2]": {"tested_on": "CH1", "conditions": "Homo sapiens, CH1, 96 h, read-out: IC50 CH1", "in_short": "as §1"}, "[3]": {"tested_on": "CH1cisR", "conditions": "Homo sapiens, CH1cisR, 96 h, read-out: IC50 CH1cisR", "in_short": "as §1"}},
  "data": [
    {"smiles": "C=C1C[C@H]2C=Nc3cc(OCCCOc4cc5c(cc4OC)C(=O)N4CC(=C)C[C@H]4C=N5)c(OC)cc3C(=O)N2C1", "note": "[UP2001 (80)]", "values": [
      {"measurement": "IC50", "setting": "[1]", "value": 9100, "unit": "pM"},
      {"measurement": "IC50", "setting": "[2]", "value": 120, "unit": "pM"},
      {"measurement": "IC50", "setting": "[3]", "value": 600, "unit": "pM"}
    ]}
  ]
}
